{"source": "patent US20100210722A1", "about": "“COMPOSITION FOR PREVENTING OR TREATING LIPID METABOLIC DISORDERS COMPRISING FUCOXANTHIN OR MARINE PLANT EXTRACT CONTAINING SAME” (AMICOGEN, INC., priority 2007, published 2010)", "format_in_all_cases": "in vivo, C57BL/6N/CriBgi mice", "key": {"ME mRNA": {"test_system": "ME mRNA", "assay": "Expression of mRNA for ME in adipose tissue (real-time PCR)", "conditions": "normal diet = 1.00, GAPDH internal marker", "description": "(§1) Test diets were as follows: “normal diet group”=AIN-76 semisynthetic diet of Teklad (Madison, Wl, USA); “high fat diet group”=normal diet+10% of corn oil and 10% of lard; “test group I”=high fat diet+fucoxanthin extract of Example 1 (fucoxanthin content=0.05%); “test group II”=high fat diet+fucoxanthin extract of Example 1 (fucoxanthin content=0.2%); “test group III”=high fat diet+fucoxanthin extract of Example 2 (fucoxanthin content=0.05%); “test group IV”=high fat diet+fucoxanthin extract of Example 2 (fucoxanthin content=0.2%). The 6 diets (normal diet, high fat diet, and test I, II, III and IV) were given to the animals for 6 weeks. Diet intake was recorded every day, and body weight was measured once a week.\n(§2) 5 mL of Trizol was added to 0.5 g of white adipose tissue. After pulverizing in liquid nitrogen using a mortar, the tissue was added to 1 mL of chloroform. […] The isolated RNA was diluted and absorbance was measured at 260 nm using a UV spectrometer. […]\n(§3) Thus prepared cDNA was […] 10-fold, and primers for analyzing the expression of the respective genes (CPT, β-oxidation, FAS, ME and G6PD) were obtained from Genotech (Daejeon, Korea). […] Fluorescence signals were monitored for each cycle and threshold cycle (Cr) was analyzed for quantitative analysis of mRNA for the test groups (Applied Biosystems, SDS7000) (Livak, 2001). […]"}, "β-oxidase mRNA": {"test_system": "β-oxidase mRNA", "assay": "Expression of mRNA for β-oxidation in adipose tissue (real-time PCR)", "conditions": "normal diet = 1.00, GAPDH internal marker", "description": "as §1, §2, §3"}, "[1]": {"test_system": "phosphatidate phosphohydrolase (PAP)", "assay": "PAP activity in liver tissue", "conditions": "high fat diet, 6 weeks", "description": "as §1"}, "G6PD mRNA": {"test_system": "G6PD mRNA", "assay": "Expression of mRNA for G6PD in adipose tissue (real-time PCR)", "conditions": "normal diet = 1.00, GAPDH internal marker", "description": "as §1, §2, §3"}, "[2]": {"assay": "Body weight of mice fed high fat diet with fucoxanthin extract or highly pure fucoxanthin", "conditions": "high fat diet; for Body weight, Week 0: Week 0 (baseline); for Body weight, Week 0 / Body weight, Week 1 / Body weight, Week 2: in g (unit assumed)", "procedure": "Seventy (70) 4-week-old male C57BL/6N/CriBgi mice weighing 14 g were purchased from Orient, and reared in separate cages maintained at 24° C. and relative humidity of 55%, providing light from 08:00 until 20:00. The mice were accustomed while providing a pellet type diet for a week. The mice, which weighed 18.5-18.7 g, were grouped into seven groups by the randomized block design. Each group was given a different diet, as follows.\nas §1\nDuring the 6-week test period, body weight was measured every week. Significance of differences of means of the groups was evaluated by one-way analysis of variance (ANOVA) technique. Duncan's multiple range test was employed for post-evaluation of the groups, with P<0.05."}, "[3]": {"test_system": "lipoprotein lipase (LPL) mRNA", "assay": "Expression of mRNA for LPL in liver tissue (real-time PCR)"}, "[4]": {"test_system": "fatty acid synthase (FAS)", "assay": "FAS activity in liver tissue", "conditions": "high fat diet, 6 weeks", "description": "as §1\nThe supernatant was centrifuged again at 12,000×g for 15 minutes. Then, the supernatant was subjected to high-speed centrifuging (Beckman, Optima TLX-120, USA) at 100,000×g for 1 hour. Then, change of the activity of enzymes involved in the synthesis of fatty acid—fatty acid synthase (FAS), glucose-6-phosphate dehydrogenase (G6PD) and malic enzyme (ME)—was measured.\nSpecifically, FAS activity was determined as follows. […] After 10 minutes of reaction at 30° C., decrease of absorbance was measured. FAS activity was calculated as nmol of NADPH oxidized per 1 mg of protein in cell per minute."}, "[5]": {"conditions": "fucoxanthin content 0.05% (Test I/III)"}, "[6]": {"conditions": "fucoxanthin content 0.2% (Test II/IV)"}}, "note": "Marks after values point to notes of the source that are not given here.", "data": [{"molecule": "CC(=O)O[C@H]1CC(C)(C)C(=C=C/C(C)=C/C=C/C(C)=C/C=C/C=C(C)/C=C/C=C(\\C)C(=O)C[C@@]23O[C@]2(C)C[C@@H](O)CC3(C)C)[C@](C)(O)C1", "note": "[highly pure fucoxanthin, Fucoxanthin]", "values": [{"measurement": "Expression of mRNA, ME", "setting": "ME mRNA; [5]", "value": "0.70 ± 0.07^ab"}, {"measurement": "Expression of mRNA, ME", "setting": "ME mRNA; [6]", "value": "0.52 ± 0.06^a"}, {"measurement": "Expression of mRNA, β-Oxidation", "setting": "β-oxidase mRNA; [5]", "value": "1.41 ± 0.50^b"}, {"measurement": "Expression of mRNA, β-Oxidation", "setting": "β-oxidase mRNA; [6]", "value": "1.26 ± 0.24^b"}, {"measurement": "PAP activity", "setting": "[1]; [5]", "value": "21.62 ± 1.54^a mmol/min/mg protein"}, {"measurement": "PAP activity", "setting": "[1]; [6]", "value": "26.14 ± 1.03^ab mmol/min/mg protein"}, {"measurement": "Expression of mRNA, G6PD", "setting": "G6PD mRNA; [5]", "value": "1.10 ± 0.15^abc"}, {"measurement": "Expression of mRNA, G6PD", "setting": "G6PD mRNA; [6]", "value": "0.67 ± 0.04^a"}, {"measurement": "Body weight, Week 0", "setting": "[2]; [5]", "value": "18.56 ± 0.3"}, {"measurement": "Body weight, Week 1", "setting": "[2]; [5]", "value": "20.19 ± 0.2"}, {"measurement": "Body weight, Week 2", "setting": "[2]; [5]", "value": "21.79 ± 0.3"}, {"measurement": "Body weight, Week 3", "setting": "[2]; [5]", "value": "22.70 ± 0.2^b"}, {"measurement": "Body weight, Week 4", "setting": "[2]; [5]", "value": "24.39 ± 0.3^b"}, {"measurement": "Body weight, Week 5", "setting": "[2]; [5]", "value": "26.46 ± 0.3^b"}, {"measurement": "Body weight, Week 6", "setting": "[2]; [5]", "value": "27.80 ± 0.3^b"}, {"measurement": "Body weight, Week 0", "setting": "[2]; [6]", "value": "18.58 ± 0.3"}, {"measurement": "Body weight, Week 1", "setting": "[2]; [6]", "value": "20.19 ± 0.3"}, {"measurement": "Body weight, Week 2", "setting": "[2]; [6]", "value": "22.30 ± 0.3"}, {"measurement": "Body weight, Week 3", "setting": "[2]; [6]", "value": "22.96 ± 0.4^ab"}, {"measurement": "Body weight, Week 4", "setting": "[2]; [6]", "value": "25.17 ± 0.5^ab"}, {"measurement": "Body weight, Week 5", "setting": "[2]; [6]", "value": "26.39 ± 0.6^b"}, {"measurement": "Body weight, Week 6", "setting": "[2]; [6]", "value": "27.37 ± 0.7^bc"}, {"measurement": "Expression of mRNA, LPL", "setting": "[3]; normal diet = 1.00, fucoxanthin content 0.05% (Test I/III)", "value": "2.11 ± 0.09^b"}, {"measurement": "Expression of mRNA, LPL", "setting": "[3]; normal diet = 1.00, fucoxanthin content 0.2% (Test II/IV)", "value": "1.20 ± 0.14^a"}, {"measurement": "FAS activity", "setting": "[4]; [5]", "value": "7.92 ± 0.59^a mmol/min/mg protein"}, {"measurement": "FAS activity", "setting": "[4]; [6]", "value": "9.49 ± 0.65^ab mmol/min/mg protein"}]}]}
